Among the data in patent USRE37781E1, “Substituted cyclic carbonyls and derivatives thereof useful as retroviral protease inhibitors” (DuPont Pharmaceuticals Company, priority 1991, dated 2002) are IC90 and Ki values, retold here.

The subject of one assay is HIV-1 (RF) in MT-2 cells. The experiment in a line: microbe, parasite or virus in culture. Type of assay: cell-based. The note with it: Human immunodeficiency virus 1, MT2, Table 2i; read-out: IC90. Summed up: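 Read-out: gag and pol viral RNA captured by 5′-biotinylated oligonucleotides on streptavidin-coated wells, detected with alkaline phosphatase-linked reporter oligonucleotides, calibrated against BH10 in vitro transcripts. Virus stocks (RF, MN, IIIB) come from H9 cultures; MT-2 host cells kept in RPMI 1640, 5% FCS.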
`CC(=NO)c1cccc(CN2C(=O)N(Cc3cccc(C(C)=NO)c3)C(Cc3ccc(F)cc3)C(O)C(O)C2Cc2ccc(F)cc2)c1` (centres unmarked) [20U]: the IC90 is under 10 µg/mL.
On the same count and under the same terms, the figure for `NC(=NO)c1cccc(CN2C(=O)N(Cc3cccc(C(N)=NO)c3)C(Cc3ccc(F)cc3)C(O)C(O)C2Cc2ccc(F)cc2)c1` (centres unmarked) [20X] is under 10 µg/mL.

The assay is the same for the next values; noted with them: Table 2i.
Consider `O=C1N(Cc2cccc(CO)c2)C(Cc2ccc(F)c(F)c2)C(O)C(O)C(Cc2ccc(F)c(F)c2)N1Cc1cccc(CO)c1` (centres unmarked) [20AA], for which the IC90 entry is “+++ (+++=<10 μg/mL)”.
Same read-out and setting: with `O=C1N(Cc2ccc(CO)cc2)C(Cc2ccc(F)c(F)c2)C(O)C(O)C(Cc2ccc(F)c(F)c2)N1Cc1ccc(CO)cc1` (centres unmarked) [20AB] the entry was “+++ (+++=<10 μg/mL)”; with `NC(=O)c1cccc(CN2C(=O)N(Cc3cccc(C(N)=O)c3)C(Cc3ccc(F)c(F)c3)C(O)C(O)C2Cc2ccc(F)c(F)c2)c1` (centres unmarked) [20AC], “+++ (+++=<10 μg/mL)”.
Still for that read-out and setting: with `NC(=NO)c1cccc(CN2C(=O)N(Cc3cccc(C(N)=NO)c3)C(Cc3ccc(F)c(F)c3)C(O)C(O)C2Cc2ccc(F)c(F)c2)c1` (centres unmarked) [20AD] the entry was “+++ (+++=<10 μg/mL)”; with `O=C1N(Cc2cccc(-c3cc[nH]n3)c2)C(Cc2ccc(F)cc2)C(O)C(O)C(Cc2ccc(F)cc2)N1CC1CC1` (centres unmarked) [20AE], “+++ (+++=<10 μg/mL)”.
The same measure, in the same setting: with `COc1cccc(CC2NC(=O)NC(Cc3cccc(OC)c3)C(O)C2O)c1` (centres unmarked) [20AO] the entry was “++ (++=10 to 100 μg/mL)”; with `O=C1N(Cc2cccc(O)c2)C(Cc2cccc(O)c2)C(O)C(O)C(Cc2cccc(O)c2)N1Cc1cccc(O)c1` (centres unmarked) [20AQ], “+++ (+++=<10 μg/mL)”; with `COc1cccc(CC2C(O)C(O)C(Cc3cccc(OC)c3)N(CC3CC3)C(=O)N2CC2CC2)c1` (centres unmarked) [20AS], “+++ (+++=<10 μg/mL)”.
For the compound `COc1cccc(CC2C(O)C(O)C(Cc3cccc(OC)c3)N(Cc3ccc(CO)cc3)C(=O)N2Cc2ccc(CO)cc2)c1` (centres unmarked) [20AT], the concentration for an effect of 90% (IC90) entry was “+++ (+++=<10 μg/mL)”.
The same measure, in the same setting: the entry for `COc1cccc(CC2C(O)C(O)C(Cc3cccc(OC)c3)N(Cc3cccc(OC)c3)C(=O)N2Cc2cccc(OC)c2)c1` (centres unmarked) [20AU] is “+++ (+++=<10 μg/mL)”; for `CCCCN1C(=O)N(CCCC)C(Cc2ccccc2[N+](=O)[O-])C(O)C(O)C1Cc1ccc([N+](=O)[O-])cc1` (centres unmarked) [20C] it is “+++ (+++=<10 μg/mL)”.
As for `NC(=O)c1cccc(CN2C(=O)N(Cc3cccc(C(N)=O)c3)C(Cc3ccc(F)cc3)C(O)C(O)C2Cc2ccc(F)cc2)c1` (centres unmarked) [20L], the concentration for an effect of 90% (IC90) result was “+++ (+++=<10 μg/mL)”.
The same measure, in the same setting: with `CC(O)c1ccc(CN2C(=O)N(Cc3ccc(C(C)O)cc3)C(Cc3ccccc3)C(O)C(O)C2Cc2ccccc2)cc1` (centres unmarked) [20M] the entry was “+++ (+++=<10 μg/mL)”; with `CC(=O)c1cccc(CN2C(=O)N(Cc3cccc(C(C)=O)c3)C(Cc3ccc(F)cc3)C(O)C(O)C2Cc2ccc(F)cc2)c1` (centres unmarked) [20N], “+++ (+++=<10 μg/mL)”.
The same measure, in the same setting: with `N#Cc1cccc(CN2C(=O)N(Cc3cccc(C#N)c3)C(Cc3ccc(F)cc3)C(O)C(O)C2Cc2ccc(F)cc2)c1` (centres unmarked) [20O] the entry was “+++ (+++=<10 μg/mL)”; with `CCCC(=O)c1cccc(CN2C(=O)N(Cc3cccc(C(=O)CCC)c3)C(Cc3ccc(F)cc3)C(O)C(O)C2Cc2ccc(F)cc2)c1` (centres unmarked) [20P], “+++ (+++=<10 μg/mL)”; with `O=C1N(Cc2cccc(CO)c2)C(Cc2ccc(F)cc2)C(O)C(O)C(Cc2ccc(F)cc2)N1Cc1cccc(CO)c1` (centres unmarked) [20T], “+++ (+++=<10 μg/mL)”.
On the same count and under the same terms, with `NC(=NO)c1cccc(CN2C(=O)N(Cc3cccc(C(N)=NO)c3)C(Cc3ccccc3)C(O)C(O)C2Cc2ccccc2)c1` (centres unmarked) [20V] the entry was “+++ (+++=<10 μg/mL)”; with `COC(=O)c1cccc(CN2C(=O)N(Cc3cccc(C(=O)OC)c3)C(Cc3ccc(F)c(F)c3)C(O)C(O)C2Cc2ccc(F)c(F)c2)c1` (centres unmarked) [20Y], “+++ (+++=<10 μg/mL)”.
In the case of `COC(=O)c1ccc(CN2C(=O)N(Cc3ccc(C(=O)OC)cc3)C(Cc3ccc(F)c(F)c3)C(O)C(O)C2Cc2ccc(F)c(F)c2)cc1` (centres unmarked) [20Z], the 90% effect concentration (IC90) result is recorded as “+++ (+++=<10 μg/mL)”.

The target in a further assay is single-chain tethered dimer of HIV protease (Human immunodeficiency virus 1, UniProt P04585). The experiment in a line: biochemical. The note with it: Table 2i; read-out: HPLC Ki. On the set-up: fused on or other part: A second copy of the same protease unit is joined to the first by a short peptide tether, giving one polypeptide. Type of assay: biochemical.
Turning to `O=C1N(Cc2cccc(CO)c2)C(Cc2ccc(F)c(F)c2)C(O)C(O)C(Cc2ccc(F)c(F)c2)N1Cc1cccc(CO)c1` (centres unmarked) [20AA], the Ki is under 10 nM.
The same measure, in the same setting: the figure for `O=C1N(Cc2ccc(CO)cc2)C(Cc2ccc(F)c(F)c2)C(O)C(O)C(Cc2ccc(F)c(F)c2)N1Cc1ccc(CO)cc1` (centres unmarked) [20AB] is under 10 nM; for `NC(=O)c1cccc(CN2C(=O)N(Cc3cccc(C(N)=O)c3)C(Cc3ccc(F)c(F)c3)C(O)C(O)C2Cc2ccc(F)c(F)c2)c1` (centres unmarked) [20AC] it is under 10 nM; for `NC(=NO)c1cccc(CN2C(=O)N(Cc3cccc(C(N)=NO)c3)C(Cc3ccc(F)c(F)c3)C(O)C(O)C2Cc2ccc(F)c(F)c2)c1` (centres unmarked) [20AD] it is under 10 nM.
Still for that read-out and setting: the figure for `O=C1N(Cc2cccc(-c3cc[nH]n3)c2)C(Cc2ccc(F)cc2)C(O)C(O)C(Cc2ccc(F)cc2)N1CC1CC1` (centres unmarked) [20AE] is under 10 nM.
Still for that read-out and setting: the figure for `COc1cccc(CC2NC(=O)NC(Cc3cccc(OC)c3)C(O)C2O)c1` (centres unmarked) [20AO] is 10 to 1000 nM; for `O=C1N(Cc2cccc(O)c2)C(Cc2cccc(O)c2)C(O)C(O)C(Cc2cccc(O)c2)N1Cc1cccc(O)c1` (centres unmarked) [20AQ] it is under 10 nM.
On to `COc1cccc(CC2C(O)C(O)C(Cc3cccc(OC)c3)N(CC3CC3)C(=O)N2CC2CC2)c1` (centres unmarked) [20AS], for which the Ki is under 10 nM.
Still for that read-out and setting: the figure for `COc1cccc(CC2C(O)C(O)C(Cc3cccc(OC)c3)N(Cc3ccc(CO)cc3)C(=O)N2Cc2ccc(CO)cc2)c1` (centres unmarked) [20AT] is under 10 nM; for `COc1cccc(CC2C(O)C(O)C(Cc3cccc(OC)c3)N(Cc3cccc(OC)c3)C(=O)N2Cc2cccc(OC)c2)c1` (centres unmarked) [20AU] it is under 10 nM; for `CCCCN1C(=O)N(CCCC)C(Cc2ccccc2[N+](=O)[O-])C(O)C(O)C1Cc1ccc([N+](=O)[O-])cc1` (centres unmarked) [20C] it is under 10 nM.
Still for that read-out and setting: with `NC(=O)c1cccc(CN2C(=O)N(Cc3cccc(C(N)=O)c3)C(Cc3ccc(F)cc3)C(O)C(O)C2Cc2ccc(F)cc2)c1` (centres unmarked) [20L] the figure was under 10 nM; with `CC(O)c1ccc(CN2C(=O)N(Cc3ccc(C(C)O)cc3)C(Cc3ccccc3)C(O)C(O)C2Cc2ccccc2)cc1` (centres unmarked) [20M], under 10 nM; with `CC(=O)c1cccc(CN2C(=O)N(Cc3cccc(C(C)=O)c3)C(Cc3ccc(F)cc3)C(O)C(O)C2Cc2ccc(F)cc2)c1` (centres unmarked) [20N], under 10 nM.
Still for that read-out and setting: the figure for `N#Cc1cccc(CN2C(=O)N(Cc3cccc(C#N)c3)C(Cc3ccc(F)cc3)C(O)C(O)C2Cc2ccc(F)cc2)c1` (centres unmarked) [20O] is 10 to 1000 nM; for `CCCC(=O)c1cccc(CN2C(=O)N(Cc3cccc(C(=O)CCC)c3)C(Cc3ccc(F)cc3)C(O)C(O)C2Cc2ccc(F)cc2)c1` (centres unmarked) [20P] it is under 10 nM; for `O=C1N(Cc2cccc(CO)c2)C(Cc2ccc(F)cc2)C(O)C(O)C(Cc2ccc(F)cc2)N1Cc1cccc(CO)c1` (centres unmarked) [20T] it is under 10 nM.
As for `NC(=NO)c1cccc(CN2C(=O)N(Cc3cccc(C(N)=NO)c3)C(Cc3ccccc3)C(O)C(O)C2Cc2ccccc2)c1` (centres unmarked) [20V], the Ki is under 10 nM.
The same measure, in the same setting: the figure for `COC(=O)c1cccc(CN2C(=O)N(Cc3cccc(C(=O)OC)c3)C(Cc3ccc(F)c(F)c3)C(O)C(O)C2Cc2ccc(F)c(F)c2)c1` (centres unmarked) [20Y] is under 10 nM.
Same read-out and setting: with `COC(=O)c1ccc(CN2C(=O)N(Cc3ccc(C(=O)OC)cc3)C(Cc3ccc(F)c(F)c3)C(O)C(O)C2Cc2ccc(F)c(F)c2)cc1` (centres unmarked) [20Z] the figure was 10 to 1000 nM.

The assay is the same for the next values; noted with them: read-out: HPLC Ki; Table 2i.
Take `CC(=NO)c1cccc(CN2C(=O)N(Cc3cccc(C(C)=NO)c3)C(Cc3ccc(F)cc3)C(O)C(O)C2Cc2ccc(F)cc2)c1` (centres unmarked) [20U]: the Ki was under 10 nM.
On to `NC(=NO)c1cccc(CN2C(=O)N(Cc3cccc(C(N)=NO)c3)C(Cc3ccc(F)cc3)C(O)C(O)C2Cc2ccc(F)cc2)c1` (centres unmarked) [20X], for which the inhibition constant (Ki) is under 10 nM.

For orientation: IC90 means the concentration at which the effect reaches the 90% level. What is called Ki is the dissociation constant of the complex between target and ligand, obtained from inhibition or displacement.
